Laboratory results: patent publication US10633376B2, “Crystalline forms of JAK1-selective inhibitor, processes for preparation and use thereof” (Crystal Pharmaceutical (Suzhou) Co., Ltd., priority 2016, dated 2020)
≈ marks a conversion by molar mass, not a printed value. Entries after “also recorded” stand apart in the source; their conditions may differ. Where two headings read alike, the source gives them in different places.

Experiments:
[1] = clinical trials by Gilead; cited from earlier work
[2] = 92.5% humidity for 5 days and 10 days, XRPD; cited from earlier work
[3] = prior art patents; cited from earlier work
[4] = Stability study of crystalline form on storage, XRPD; assay type: physicochemical; conditions: 3 weeks
Experimental: Form CS1 of the present disclosure was stored under 25° C./60% RH and 40° C./75% RH for 3 weeks. Form CS2 of the present disclosure was stored under 25° C./60% RH, 40° C./75% RH and 60° C./75% RH for 3 weeks.

[5] = Solubility comparison study, saturated solutions measured by HPLC; assay type: physicochemical; conditions: for Solubility in FaSSIF 1 h: FaSSIF pH=6.5, 1 h; for Solubility in FaSSIF 4 h: FaSSIF pH=6.5, 4 h; for Solubility in FaSSIF 24 h: FaSSIF pH=6.5, 24 h
Experimental: Saturated solutions of Form CS1, Form CS2 of the present disclosure and Pattern 4 in patent CN105960407A (hereinafter referred to as patent Pattern 4) were prepared in SGF (simulated gastric fluids), FeSSIF (fed state simulated intestinal fluids, pH=5.0), FaSSIF (fasted state simulated intestinal fluids, pH=6.5) and pure water. After equilibrated for 1 h, 4 h and 24 h, concentrations of the saturated solutions were measured by HPLC.

[6] = Hygroscopicity by dynamic vapor sorption (DVS); assay type: physicochemical
Experimental: Dynamic Vapor Sorption (DVS) is measured via a SMS (Surface Measurement Systems Ltd.) intrinsic DVS instrument. Its control software is DVS-Intrinsic control software, and its analysis software is DVS-Intrinsic Analsis software. Typical Parameters for DVS test are as follows:
Gas and flow rate: N2, 200 mL/min
RH range: 0% RH to 95% RH
Dynamic vapor sorption (DVS) was applied to test hygroscopicity of Form CS2 and Pattern 4 in patent CN105960407A (hereinafter referred to as patent Pattern 4) on about 10 mg of samples. The weight gains at each relative humidity were recorded in a cycle of 0-95%-0 RH.

[7] = Mechanical stability study, XRPD before and after grinding; assay type: physicochemical
Source text: XRPD was applied to test the crystalline forms of Form CS2, Form CS3 and Pattern 4 in patent CN105960407A before and after grinding. The test results were shown in FIG. 20, FIG. 21 and FIG. 22.

O=C(Nc1nc2cccc(-c3ccc(CN4CCS(=O)(=O)CC4)cc3)n2n1)C1CC1 [Filgotinib, N-[5-[4-[(1,1-dioxo-1-thiomorpholin-4-yl)methyl]phenyl][1,2,4]triazolo [1,5-a]pyridin-2-yl]cyclopropanecarboxamide]
Anemia and abnormal increase in low density lipoprotein (LDL) [1]: does not cause an anemia and abnormal increase in low density lipoprotein (LDL)

O=C(Nc1nc2cccc(-c3ccc(CN4CCS(=O)(=O)CC4)cc3)n2n1)C1CC1 [Form B of free form]
Stability [2]: Stability is poor. Sample was tested by XRPD after being | Solubility in water [3]: The solubility in water is 41.28 μg/mL. The yield is low,

O=C(Nc1nc2cccc(-c3ccc(CN4CCS(=O)(=O)CC4)cc3)n2n1)C1CC1 [Form C of free form]
Stability [2]: Stability is poor. Sample was tested by XRPD after being | Solubility in water [3]: The solubility in water is 42.22 μg/mL. The yield is low

O=C(Nc1nc2cccc(-c3ccc(CN4CCS(=O)(=O)CC4)cc3)n2n1)C1CC1 [Form CS1]
Solid form change ([4]; 25° C./60% RH): doesn't change; also recorded: No form change of Form CS1 | Solid form change ([4]; 40° C./75% RH): doesn't change; also recorded: No form change of Form CS1 | Solubility in FaSSIF 1 h [5]: 120 µg/mL (≈ 282 µM) | Solubility in FaSSIF 4 h [5]: 110 µg/mL (≈ 259 µM) | Solubility in FaSSIF 24 h [5]: 120 µg/mL (≈ 282 µM) | Solubility in SGF 1 h ([5]; SGF (pH=1.8)): 3230 µg/mL (≈ 7590 µM) | Solubility in SGF 4 h ([5]; SGF (pH=1.8), 4 h): 3300 µg/mL (≈ 7760 µM) | Solubility in SGF 24 h ([5]; SGF (pH=1.8), 24 h): 820 µg/mL (≈ 1930 µM) | solubility at 1 h ([5]; fed state simulated intestinal fluid (FeSSIF), pH 5, fessif, thermodynamic from solid, FeSSIF pH=5.0, 1 h): 200 µg/mL (≈ 470 µM) | solubility at 4 h ([5]; fed state simulated intestinal fluid (FeSSIF), pH 5, fessif, thermodynamic from solid, FeSSIF pH=5.0, 4 h, read-out: Solubility in FeSSIF 4 h): 200 µg/mL (≈ 470 µM) | solubility at 24 h ([5]; fed state simulated intestinal fluid (FeSSIF), pH 5, fessif, thermodynamic from solid, FeSSIF pH=5.0, 24 h, read-out: Solubility in FeSSIF 24 h): 250 µg/mL (≈ 588 µM) | Solubility in water 1 h ([5]; pure water): 120 µg/mL (≈ 282 µM) | Solubility in water 4 h ([5]; pure water, 4 h): 90 µg/mL (≈ 212 µM) | Solubility in water 24 h ([5]; pure water, 24 h): 210 µg/mL (≈ 494 µM)

O=C(Nc1nc2cccc(-c3ccc(CN4CCS(=O)(=O)CC4)cc3)n2n1)C1CC1 [Form CS2]
Hygroscopicity class ([6]; 80% RH, Chinese Pharmacopoeia 2015 definition): almost non-hygroscopic; also recorded: almost no hygroscopic | Form change after DVS ([6]; XRPD before and after DVS cycle 0-95%-0 RH): no form change was observed | Solid form change ([4]; 25° C./60% RH): doesn't change; also recorded: No form change of Form CS2 | Solid form change ([4]; 40° C./75% RH): doesn't change; also recorded: No form change of Form CS2 | Solid form change ([4]; 60° C./75% RH): doesn't change; also recorded: No form change of Form CS2 | Solubility in FaSSIF 1 h [5]: 50 µg/mL (≈ 118 µM) | Solubility in FaSSIF 4 h [5]: 50 µg/mL (≈ 118 µM) | Solubility in FaSSIF 24 h [5]: 40 µg/mL (≈ 94 µM) | Solubility in FeSSIF 1 h ([5]; FeSSIF pH=5.0, 1 h): 90 µg/mL (≈ 212 µM) | Solubility in FeSSIF 4 h ([5]; FeSSIF pH=5.0, 4 h): 100 µg/mL (≈ 235 µM) | Solubility in FeSSIF 24 h ([5]; FeSSIF pH=5.0, 24 h): 80 µg/mL (≈ 188 µM) | Solubility in SGF 1 h ([5]; SGF (pH=1.8)): 1310 µg/mL (≈ 3080 µM) | Solubility in SGF 4 h ([5]; SGF (pH=1.8), 4 h): 1320 µg/mL (≈ 3100 µM) | Solubility in water 1 h ([5]; pure water): 40 µg/mL (≈ 94 µM) | Solubility in water 24 h ([5]; pure water, 24 h): 40 µg/mL (≈ 94 µM) | solubility at 4 h ([5]; pure water, water, thermodynamic from solid, pure water, 4 h, read-out: Solubility in water 4 h): 40 µg/mL (≈ 94 µM) | solubility at 24 h ([5]; simulated gastric fluid (SGF), pH 1.8, simulated gastric fluid, thermodynamic from solid, SGF (pH=1.8), 24 h, read-out: Solubility in SGF 24 h): 560 µg/mL (≈ 1320 µM) | Mechanical stability (crystalline form after grinding) [7]: better mechanical stabilities; also recorded: don't change after grinding; also recorded: without crystal transformation observed during grinding

O=C(Nc1nc2cccc(-c3ccc(CN4CCS(=O)(=O)CC4)cc3)n2n1)C1CC1 [Form D of free form]
Stability [2]: Stability is poor. XRPD is tested after being placed at | Solubility in water [3]: solubility in water is 55.26 μg/mL. The yield is low and is

O=C(Nc1nc2cccc(-c3ccc(CN4CCS(=O)(=O)CC4)cc3)n2n1)C1CC1 [Form E of free form]
Stability [2]: Stability is poor. XRPD is tested after being placed at

O=C(Nc1nc2cccc(-c3ccc(CN4CCS(=O)(=O)CC4)cc3)n2n1)C1CC1 [Form F of free form]
Solubility in water [3]: The solubility is low. The solubility in water is 50.98 μg/mL

O=C(Nc1nc2cccc(-c3ccc(CN4CCS(=O)(=O)CC4)cc3)n2n1)C1CC1 [Form H of free form]
Solubility in water [3]: solubility in water is 12.77 μg/mL.

O=C(Nc1nc2cccc(-c3ccc(CN4CCS(=O)(=O)CC4)cc3)n2n1)C1CC1 [Pattern 4, reference compound]
Solubility in FaSSIF 1 h ([5]; listed as Patent Pattern 4): 20 µg/mL (≈ 47 µM) | Solubility in FaSSIF 4 h ([5]; listed as Patent Pattern 4): 20 µg/mL (≈ 47 µM) | Solubility in FaSSIF 24 h ([5]; listed as Patent Pattern 4): 20 µg/mL (≈ 47 µM) | Solubility in FeSSIF 1 h ([5]; FeSSIF pH=5.0, 1 h, listed as Patent Pattern 4): 30 µg/mL (≈ 70.5 µM) | Solubility in FeSSIF 4 h ([5]; FeSSIF pH=5.0, 4 h, listed as Patent Pattern 4): 30 µg/mL (≈ 70.5 µM) | Solubility in FeSSIF 24 h ([5]; FeSSIF pH=5.0, 24 h, listed as Patent Pattern 4): 30 µg/mL (≈ 70.5 µM) | Solubility in SGF 1 h ([5]; SGF (pH=1.8), listed as Patent Pattern 4): 1020 µg/mL (≈ 2400 µM) | Solubility in SGF 4 h ([5]; SGF (pH=1.8), 4 h, listed as Patent Pattern 4): 1070 µg/mL (≈ 2510 µM) | Solubility in SGF 24 h ([5]; SGF (pH=1.8), 24 h, listed as Patent Pattern 4): 460 µg/mL (≈ 1080 µM) | Solubility in water 1 h ([5]; pure water, listed as Patent Pattern 4): 20 µg/mL (≈ 47 µM) | Solubility in water 4 h ([5]; pure water, 4 h, listed as Patent Pattern 4): 10 µg/mL (≈ 23.5 µM) | Solubility in water 24 h ([5]; pure water, 24 h, listed as Patent Pattern 4): 10 µg/mL (≈ 23.5 µM) | Mechanical stability (crystalline form after grinding) [7]: poor mechanical stability
